Here are results for 1 molecule from patent US20110105565A1, “WATER SOLUBLE SMALL MOLECULE INHIBITORS OF THE CYSTIC FIBROSIS TRANSMEMBRANE CONDUCTANCE REGULATOR” (THE REGENTS OF THE UNIVERSITY OF CALIFORNIA, priority 2008, published 2011).

Series [1] is described as follows: Solubility measurements in saline (PBS, LC/MS). In kind it is physicochemical. As for the experimental part:
Solubility measurements. A saturated compound solution was prepared by addition of DMSO stock to phosphate buffered saline (final DMSO 2%) followed by sonication for 5 min at 25° C. and shaking at room temperature for 1 h. After centrifugation at 15,000 rpm for 1 h, the supernatant was analyzed by LC/MS with concentration determined from area under the curve, standardized against calibration data. A standard curve for each compound was obtained by plotting area under the curve from chromatograms against inhibitor concentration. The concentration range of the standard solutions was 1-15 μM (for 5) and 1-100 μM (other compounds). In all cases, standard curves prepared were linear with r>0.998.
A saturated drug solution of a compound was prepared by addition of the compound in DMSO to phosphate buffered saline (PBS), followed by sonication for 5 min at 25° C. Final concentration of DMSO was <2%. Each saturated solution was centrifuged and filtered. The saturated supernatant solution was diluted and injected into LC/MS. The concentration was determined from area under the curve using a calibration curve.

The next series deals with human wildtype CFTR (Homo sapiens, UniProt P13569). The experiment in a line: Fluorescence cell-based assay of CFTR inhibition (YFP iodide influx, FRT cells). On the set-up: expressed in transfected cells; host or cells: Fisher rat thyroid (FRT) cells. The following applies: given as ranges, read-out: IC50.
The test system of the next series is FRT cells. The experiment in a line: Cytotoxicity measurements, crystal violet staining of FRT cells. It counts as cell-based, rat. The following applies: 48 h. As to the method:
Cytotoxicity measurements. FRT cells in confluent monolayers were incubated with compounds for 2 days. Cells were washed 3 times, fixed (cytofix, 30 min) and stained with crystal violet (100 μl, 0.5%, 10 min) using standard procedures. Excess crystal violet was removed by washing, and dye was extracted with Sorenson's buffer (0.1 M sodium citrate, 50% ethanol, pH 4.2). Crystal violet was quantified by measurement of absorbance at 650 nm. The percentage crystal violet staining was determined from test wells measured 8 times, compared to blanks (wells not containing cells) and vehicle-treated cells.
Cytotoxicity analysis was performed for Tetrazolo-172, Oxo-172, α-Me-172 and Pyridine-NO-172 (Compound 17) and compared with CFTRinh-172 (Table 3). […] Crystal violet staining was reduced for Tetrazolo-172 and α-Me-172 at 50 μM.

In brackets after ≈: the same amount, converted by molar mass. Read-outs that look alike come from different tables or passages of the source.

human wildtype CFTR, sequence (P13569 whole entry): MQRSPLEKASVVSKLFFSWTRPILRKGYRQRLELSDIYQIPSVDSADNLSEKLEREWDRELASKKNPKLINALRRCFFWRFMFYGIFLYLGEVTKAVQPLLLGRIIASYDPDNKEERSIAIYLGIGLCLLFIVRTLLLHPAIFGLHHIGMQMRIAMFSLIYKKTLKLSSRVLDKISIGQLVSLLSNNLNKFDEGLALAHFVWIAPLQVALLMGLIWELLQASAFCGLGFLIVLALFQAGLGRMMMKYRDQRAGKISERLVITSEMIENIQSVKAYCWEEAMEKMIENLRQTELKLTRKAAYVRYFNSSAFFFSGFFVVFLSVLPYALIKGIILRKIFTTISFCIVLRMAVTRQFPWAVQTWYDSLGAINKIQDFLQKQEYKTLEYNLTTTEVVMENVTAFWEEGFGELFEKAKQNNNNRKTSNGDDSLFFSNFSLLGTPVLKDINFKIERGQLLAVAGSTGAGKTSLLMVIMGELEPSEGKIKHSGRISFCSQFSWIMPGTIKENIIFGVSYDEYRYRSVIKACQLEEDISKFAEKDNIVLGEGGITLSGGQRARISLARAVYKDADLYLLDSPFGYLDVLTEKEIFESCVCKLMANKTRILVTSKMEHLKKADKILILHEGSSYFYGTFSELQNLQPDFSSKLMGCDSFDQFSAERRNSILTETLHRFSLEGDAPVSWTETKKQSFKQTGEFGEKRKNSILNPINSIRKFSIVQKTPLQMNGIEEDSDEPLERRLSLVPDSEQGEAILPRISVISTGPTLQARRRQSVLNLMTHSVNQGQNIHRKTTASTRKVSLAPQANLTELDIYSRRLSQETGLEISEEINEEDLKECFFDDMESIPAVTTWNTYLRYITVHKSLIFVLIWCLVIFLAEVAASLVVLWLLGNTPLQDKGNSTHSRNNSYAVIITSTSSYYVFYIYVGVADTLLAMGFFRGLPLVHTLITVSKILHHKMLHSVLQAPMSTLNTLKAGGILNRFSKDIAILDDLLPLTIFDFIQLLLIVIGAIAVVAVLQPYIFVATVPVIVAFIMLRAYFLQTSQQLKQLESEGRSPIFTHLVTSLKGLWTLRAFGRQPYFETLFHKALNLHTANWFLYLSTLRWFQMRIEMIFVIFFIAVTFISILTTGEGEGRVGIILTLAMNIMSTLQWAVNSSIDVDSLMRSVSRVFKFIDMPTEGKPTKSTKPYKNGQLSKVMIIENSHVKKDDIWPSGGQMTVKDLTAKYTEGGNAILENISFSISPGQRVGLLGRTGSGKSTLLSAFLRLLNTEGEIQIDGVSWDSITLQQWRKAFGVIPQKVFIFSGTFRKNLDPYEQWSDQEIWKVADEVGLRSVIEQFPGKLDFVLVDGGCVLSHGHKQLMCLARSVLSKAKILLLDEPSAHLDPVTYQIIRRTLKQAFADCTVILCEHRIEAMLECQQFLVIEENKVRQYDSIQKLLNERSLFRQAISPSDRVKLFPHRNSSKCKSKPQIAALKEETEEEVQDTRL
Description for human wildtype CFTR: CFTR inhibition by thiazolidinone derivative compounds was determined by a fluorescence cell-based assay utilizing doubly transfected cells expressing human wild-type CFTR and a yellow fluorescent protein (YFP) iodide sensor, as described (see, e.g., Galietta, et al., J. Physiol. 281:C1734-C1742 (2001)). Fisher rat thyroid (FRT) cells stably expressing wild-type human CFTR and YFP-H148Q were cultured on 96-well black-wall plates as described (see, e.g., Ma, et al., J. Clin. Invest. 110:1651-1658 (2002)). Cells in 96-well plates were washed three times, and then CFTR was activated by incubation for 15 minutes with an activating cocktail containing 10 μM forskolin, 20 μM apigenin, and 100 μM IBMX. Test compounds were added 5 minutes before assay of iodide influx in which cells were exposed to a 100 mM inwardly directed iodide gradient. YFP fluorescence was recorded for 2 seconds before and 12 seconds after creation of the iodide gradient. Initial rates of iodide influx were computed from the time course of decreasing fluorescence after the iodide gradient.
CFTR-facilitated iodide influx following extracellular iodide addition results in quenching of cytoplasmic YFP fluorescence.

A word on the IC50: it is the concentration that gives 50% inhibition. As for `O=C1/C(=C/c2ccc(-c3nn[nH]n3)cc2)SC(=S)N1c1cccc(C(F)(F)F)c1` [Compound 6, (Z)-5-(4-(1H-tetrazol-5-yl)benzylidene)-2-thioxo-3-(3-(trifluoromethyl)phenyl)thiazolidin-4-one], in series [1], the “increase of solubility in saline/water relative to CFTRinh-172” value is on record as 11 fold. In addition, in series [1] (Table 3, PBS, DMSO <2%), the “Solubility in saline” value came out at 189 µM (≈ 81.9 µg/mL). The IC50 lay within 100 to 1000 nM on human wildtype CFTR (Table 1, upper part, CFTR inhibitory activity) and 100 to 1000 nM at human wildtype CFTR (Table 2 summary table). The “% Cell viability 20 μM” value with FRT cells (20 μM, crystal violet staining) is reported as 87%. Further, in the series on FRT cells (50 μM), the “Crystal violet staining at 50 μM (in words)” value is recorded as “reduced”. Besides, the “% Cell viability 50 μM” value with FRT cells (50 μM, crystal violet staining) is reported as 73%.
